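All cell lines were grown in 96-well plates and treated with compound for 48 hours. Definition used: TGI = concentration required for complete inhibition of growth.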
How the values were obtained:
Experiment in all cases: growth of human tumour cells (NCI), 48 h
SNB-78 CNS = system: SNB-78 CNS
DMS 114 small cell lung = system: DMS 114 small cell lung
SW-620 colon = system: SW-620 colon
IGROV1 ovarian = system: IGROV1 ovarian
NCI-H460 lung = system: NCI-H460 lung
HCC-2998 colon = system: HCC-2998 colon
SF-295 CNS = system: SF-295 CNS
HL-60(TB) leukemia = system: HL-60(TB) leukemia
LOX IMVI melanoma = system: LOX IMVI melanoma
CCRF-CEM leukemia = system: CCRF-CEM leukemia
NCI-H226 lung = system: NCI-H226 lung
OVCAR-3 ovarian = system: OVCAR-3 ovarian
HCT-116 colon = system: HCT-116 colon
SK-MEL-2 melanoma = system: SK-MEL-2 melanoma
HT29 colon = system: HT29 colon
SK-MEL-5 melanoma = system: SK-MEL-5 melanoma
SN12C renal = system: SN12C renal
OVCAR-5 ovarian = system: OVCAR-5 ovarian
HOP-18 NSCLC = system: HOP-18 NSCLC
RPMI-8226 leukemia = system: RPMI-8226 leukemia
UACC-62 melanoma = system: UACC-62 melanoma
U251 CNS = system: U251 CNS
NCI-H522 lung = system: NCI-H522 lung
MALME-3M melanoma = system: MALME-3M melanoma
UO-31 renal = system: UO-31 renal
RXF 393 renal = system: RXF 393 renal
LXFL 529 NSCLC = system: LXFL 529 NSCLC
HCT-15 colon = system: HCT-15 colon
K-562 leukemia = system: K-562 leukemia
ACHN renal = system: ACHN renal
KM20L2 colon = system: KM20L2 colon
CAKI-1 renal = system: CAKI-1 renal
OVCAR-4 ovarian = system: OVCAR-4 ovarian
TK-10 renal = system: TK-10 renal
EKVX NSCLC = system: EKVX NSCLC
RXF-631 renal = system: RXF-631 renal
NCI-H23 lung = system: NCI-H23 lung
M14 melanoma = system: M14 melanoma
SF-539 CNS = system: SF-539 CNS
UACC-257 melanoma = system: UACC-257 melanoma
SNB-75 CNS = system: SNB-75 CNS
SNB-19 CNS = system: SNB-19 CNS
DMS 273 small cell lung = system: DMS 273 small cell lung
DLD-1 colon = system: DLD-1 colon
SR leukemia = system: SR leukemia
HOP-62 NSCLC = system: HOP-62 NSCLC
MOLT-4 leukemia = system: MOLT-4 leukemia
OVCAR-8 ovarian = system: OVCAR-8 ovarian
SK-OV-3 ovarian = system: SK-OV-3 ovarian
A549 NSCLC = system: A549 NSCLC
A498 renal = system: A498 renal
SK-MEL-28 melanoma = system: SK-MEL-28 melanoma
SF-268 CNS = system: SF-268 CNS
KM12 colon = system: KM12 colon
XF 498 CNS = system: XF 498 CNS
COLO 205 colon = system: COLO 205 colon
M19-MEL melanoma = system: M19-MEL melanoma
786-0 renal = system: 786-0 renal

Measured: TGI

CCCC[n+]1ccn(-c2nc3ccccc3n2C)c1
not listed: A498 renal | SK-MEL-28 melanoma | SF-268 CNS | KM12 colon | XF 498 CNS | COLO 205 colon | M19-MEL melanoma | 786-0 renal
> 100 µM: all other assays above

C=CCN=C1NC(=O)C(CC(=O)Nc2cccc(Cl)c2)S1 (stereo not given)
not listed: SNB-78 CNS | HCT-116 colon | SR leukemia
> 100 µM: all other assays above
